Paper PMC9228955, “Synthesis, Physicochemical, Labeling and In Vivo Characterization of ^44Sc-Labeled DO3AM-NI as a Hypoxia-Sensitive PET Probe” (Pharmaceuticals, 2022)
Like-named read-outs stand apart in the source and are kept apart here.

Tests used:
[1] = Stability constant of Sc(III) complex by 1H and 45Sc NMR batch samples and pH-potentiometric titration; pSc calculation; type: physicochemical; details: for pSc (-log[Sc(III)]free): [Sc(III)]tot = 1 × 10^−8 M, [L]tot = 1 × 10^−7 M, pH = 7.4
Experimental: The stability constant of the Sc(DO3AM-NI) complex was assessed by ^1H and ^45Sc-NMR studies using samples prepared in the 0.055–0.195 M acid concentration range. […] Absence of protonation and the presence of a ternary hydroxydo species formation with KScL•OH = 10.88(5) were detected at our experimental conditions. The NMR samples contained 3.32 mM ligand, ScCl3 and a constant ionic strength of 0.15 M NaCl. The samples were thermostated at 37 °C, and their ^1H- and ^45Sc-NMR spectra were recorded after 60 days. In order to ensure that the equilibrium in the samples was attained, the ^1H and ^45Sc-NMR measurements were repeated again 90 days later. The spectra were practically identical with the spectra recorded at 60 days (Figures S4 and S5). As expected, the thermodynamic stability constant of the Sc(DO3AM-NI) complex (log KScL = 22.36(4)) was considerably lower than those of Sc(III) complexes formed with DOTA, DTPA or AAZTA ligands (Table 1). A moderate decrease in terms of thermodynamic stability constants was already observed for the complexes of DO3A-monamides formed with Gd(III) ions in comparison to the stability of parent Gd(DOTA)^− chelate. Despite the lower stability constant of the complex, the Sc(III) ion was complexed completely around pH = 2.0 (in a millimolar concentration range, see Figure 2). However, it might be misleading to directly compare the stability constants of the complexes formed by ligands of different basicity (as it depends on the basicity of the ligand); therefore, we calculated and compared the pSc values (which could be treated as conditional constants) for the complexes shown in Table 1 by taking the protonation constants of ligands, the stability constants of the complex species present in solution and the hydrolysis of the Sc(III) ion (according to Ref. [23]: log βSc(OH) = −4.3, log βSc(OH)2 = −9.7, log βSc(OH)3 = −16.1, log βSc(OH)4 = −26.0 and log βSc2(OH)4 = −6.0) into account.
(§1) The equilibrium measurements were performed at constant ionic strength maintained by 0.15 M NaCl at 37 °C. For determining the protonation constants of DO3AM-NI, two parallel pH-potentiometric titrations were performed with 0.1611 M NaOH in a 5.00 cm^3 sample containing the ligand at the concentration of 2.76 mM. The stability constant of Sc(DO3AM-NI) was assessed by ^1H and ^45Sc NMR in 0.7 mL “batch” samples containing the metal and the ligand at 3.32 mM and different concentrations of strong acid (0.05–0.20 M) aged 90 days (see below). The formation of protonated and ternary hydroxydo complex species was probed by pH-potentiometric titration by titrating the preformed complex (at a concentration of 1.95 mM) with standardized NaOH solution. For the calculation of the logKMH-1L value, the VNaOH–pH data used were obtained in the pH range 1.68–11.85. The pH-potentiometric titrations were carried out with a Metrohm 785 DMP Titrino titration workstation with the use of a Metrohm-6.0233.100-combined electrode calibrated via a two-point calibration routine using KH-phthalate (pH = 4.005) and borax (pH = 9.177) buffers. The titrated samples were stirred with a magnetic stirrer, and N2 gas was bubbled through the solutions to avoid the effect of CO2. For the calculation of [H^+] from the measured pH values, the method proposed by Irving et al. was applied. For this, a 0.01M HCl solution was titrated with the standardized NaOH solution in the presence of 0.15 M NaCl ionic strength at 37 °C. The differences between the measured (pHread) and calculated pH (-log[H^+]) values were used to obtain the equilibrium H^+ concentration from the pHmeas values during the titrations. […] For the calculation of the equilibrium constants, the PSEQUAD program was used.
^1H- and ^45Sc-NMR measurements (400 MHz and 97 MHz, respectively) were performed with a Bruker DRX 400 (9.4 T) spectrometer equipped with a Bruker VT-1000 thermocontroller and a BB inverse z-gradient probe (5 mm). […]

[2] = 25 °C, cited from earlier work
[3] = 25 °C, cited from earlier work; remark: listed apart in the source
[4] = pH-potentiometric determination of ligand protonation constants; type: physicochemical; details: 0.15 M NaCl, 37 °C
Experimental: Equilibrium measurements were commenced by determining the protonation constants of the ligand, measured at 37 °C (I = 0.15 M NaCl) owing to the relevance of the chelate under in vivo conditions. The protonation constants obtained by fitting the pH-potentiometric data for the ligand DO3AM-NI are shown in Table 1 along with the literature data published for DOTA and certain DO3A-monoamides (DO3A-mono-N-buthylamide as well as that of a hypoxia-sensitive MRI probe reported by some of us a couple of years ago). Five protonation steps were observed by performing the titration in the pH range of 1.72–11.85 for the DO3AM-NI monoamide type ligand, two of which (characterized by high constants) describe the protonation of nitrogen atoms in the macrocycle (positioned trans- to each other), while the remaining log Ki^H values (much lower) likely reflect the protonation of the carboxylates. The replacement of an acetate group of DOTA by an amide moiety results in a decrease in the protonation sites of the ligand, and as a consequence the overall basicity of the ligand (expressed as the sum of the protonation constants, log β015) was as expected, predicted from the data published in literature. What is more, the formation of a weak Na^+ complex (originating from the ionic strength) competing with the first protonation process may be responsible of the lower value of the first protonation constant.
as §1

[5] = constants at 0.1 M Me4NCl, 25 °C from Ref. 19

In the case of `CC1(N(CC(=O)O)CC(=O)O)CN(CC(=O)O)CCN(CC(=O)O)C1` [AAZTA], the “pSc (-log[Sc(III)]free)” value ([1]; constants at 0.1 M KCl, 25 °C from Ref. 20) is listed as 24.72, the “log K1^H” value ([2]; 0.1 M KCl) is listed as 11.26 and the “log K2^H” value ([2]; 0.1 M KCl) is listed as 6.62. The “log K3^H” value ([2]; 0.1 M KCl) was 3.86, the “log K4^H” value ([2]; 0.1 M KCl) was 2.45 and the “log K5^H” value ([2]; 0.1 M KCl) was 1.88. The “log K6^H” value ([2]; 0.1 M KCl) was 1.46, the “log KScL•H (protonation constant of Sc(III) complex)” value (“log KScL•H” below) ([3]; 0.1 M KCl) was 0.86 and the “log KSc•L (stability constant of Sc(III) complex)” value (from here on “log KSc•L”) ([3]; 0.1 M KCl) was 27.69.

In the case of `O=C(O)CN1CCN(CC(=O)O)CCN(CC(=O)NCCn2ccnc2[N+](=O)[O-])CCN(CC(=O)O)CC1` [DO3AM-NI], the “log K1^H” value [4] is reported as 8.79(1), the “log K2^H” value [4] is reported as 8.59(1) and the “log K3^H” value [4] is reported as 4.23(1). The “log K4^H” value [4] was 2.49(1), the “log K5^H” value [4] was 1.00(4) and the “log β015 (sum of the protonation constants)” value (“log β015” for short) [4] was 25.10. The “log KScL•OH (ternary hydroxydo species)” value ([1]; 0.15 M NaCl, 37 °C) was 10.88(5), the “log KSc•L” value ([1]; 0.15 M NaCl, 37 °C) was 22.36(4) and the “pSc (-log[Sc(III)]free)” value ([1]; constants at 0.15 M NaCl, 37 °C) was 20.74.

For `CCCCNC(=O)CN1CCN(CC(=O)O)CCN(CC(=O)O)CCN(CC(=O)O)CC1` [DO3AM^nBu, DO3A-mono-N-buthylamide], the “log K1^H” value ([2]; 1.0 M KCl) is given as 9.78, the “log K2^H” value ([2]; 1.0 M KCl) is given as 9.05 and the “log K3^H” value ([2]; 1.0 M KCl) is given as 4.53. The “log K4^H” value ([2]; 1.0 M KCl) was 3.17, the “log K5^H” value ([2]; 1.0 M KCl) was 2.19 and the “log β015” value ([2]; 1.0 M KCl) was 28.72.

In the case of `O=C(O)CN1CCN(CC(=O)O)CCN(CC(=O)O)CCN(CC(=O)O)CC1` [DOTA, 1,4,7,10-tetraazacyclododecane-1,4,7,10-tetraacetic acid], the “pSc (-log[Sc(III)]free)” value [1, 5] is given as 23.92, the “log K1^H” value ([2]; 0.1 M Me4NCl) is given as 12.90 and the “log K2^H” value ([2]; 0.1 M Me4NCl) is given as 9.72. The “log K3^H” value ([2]; 0.1 M Me4NCl) was 4.62, the “log K4^H” value ([2]; 0.1 M Me4NCl) was 4.15 and the “log K5^H” value ([2]; 0.1 M Me4NCl) was 2.29. For the same compound, the “log K6^H” value ([2]; 0.1 M Me4NCl) was 1.34, the “log β015” value ([2]; 0.1 M Me4NCl) was 33.68 and the “log KScL•H” value ([3]; 0.1 M Me4NCl) was 1.00. For the same compound, the “log KSc•L” value ([3]; 0.1 M Me4NCl) was 30.79.

In the case of `O=C(O)CN(CCN(CC(=O)O)CC(=O)O)CCN(CC(=O)O)CC(=O)O` [DTPA], the “pSc (-log[Sc(III)]free)” value [1, 5] is given as 23.88, the “log K1^H” value ([2]; 0.1 M Me4NCl) is given as 10.65 and the “log K2^H” value ([2]; 0.1 M Me4NCl) is given as 8.66. For the same compound, the “log K3^H” value ([2]; 0.1 M Me4NCl) was 4.36, the “log K4^H” value ([2]; 0.1 M Me4NCl) was 2.82 and the “log K5^H” value ([2]; 0.1 M Me4NCl) was 2.03. The “log K6^H” value ([2]; 0.1 M Me4NCl) was 1.31, the “log K7^H” value ([2]; 0.1 M Me4NCl) was 1.30 and the “log β015” value ([2]; 0.1 M Me4NCl) was 28.52. For the same compound, the “log KScL•H” value ([3]; 0.1 M Me4NCl) was 1.36, the “log KScL•OH (ternary hydroxydo species)” value ([3]; 0.1 M Me4NCl) was 12.44 and the “log KSc•L” value ([3]; 0.1 M Me4NCl) was 27.43.
